From publication PMC6993587, “Detection of EXP1-Specific CD4+ T Cell Responses Directed Against a Broad Range of Epitopes Including Two Promiscuous MHC Class II Binders During Acute Plasmodium falciparum Malaria” (Frontiers in Immunology, 2020)
Ends that are not written are not given here.

Columns and labels:
Experiment in all cases: In vitro HLA binding assay with purified HLA-DR molecules
[1] = molecular target: HLA-DR DRB1*09:01 (Homo sapiens, UniProt P01903+P01911, A100R/A103E/D57H/D86V/F55Y/F60I/F76Y/I96F/K127E/L162R/M171V/P40D/Q125H/Q99R/R33Q/R42F/S133A/S66N/T210M/V115G/W38K/Y107V/Y59G/Y89S)
[2] = molecular target: HLA-DR DRB1*01:01 (Homo sapiens, UniProt P01903+P01911, A100R/D57E/F55L/F60I/F76Y/I96L/L162R/M171V/P40L/Q125E/R42F/V115G/Y59C); conditions: purified HLA-DR molecule; high affinity binding = IC50 <1,000 nM
Description: (§1) In vitro binding assays with 14 of the peptides that elicited a response were performed using purified HLA-DR molecules, as previously described (Table 3) ([37]). MHC class II in silico binding predictions were defined, using the IEDB analysis resource ([38]–[40]), combining predictions from the ANN ([41], [42]) and SMM ([43]) algorithms (Supplementary Table 2A).
(§2) To test this hypothesis, we measured the in vitro capacity of the most frequently recognized EXP1 peptides to bind to a panel of 17 of the most prevalent human HLA-DR molecules, since the majority of HLA class II restricted CD4+ T cell responses are presented by these molecules ([49], [50]). Peptides with an IC50 of 1,000 nM or lower, a threshold previously found associated with the vast majority of HLA class II-restricted T cell epitopes, were considered binders to the respective DR molecule ([51]–[53]). […] These include EXP1-P14 which bound to five, EXP1-P15 to 13, EXP1-P16 to 10 and EXP1-P17 to nine different HLA molecules (Table 3).

[3] = molecular target: HLA-DR DRB1*04:01 (Homo sapiens, UniProt P01903+P01911, A100K/A169T/F76Y/I96L/K127E/L162R/M171V/N62H/P40V/Q125Y/R42H/S133A/S149N/S66Y/V115G/V209L/W38E); conditions: purified HLA-DR molecule; high affinity binding = IC50 <1,000 nM
Description: as §1, §2

[4] = molecular target: HLA-DR DRB1*04:04 (Homo sapiens, UniProt P01903+P01911, A100R/A169T/F76Y/I96L/K127E/L162R/M171V/N62H/P40V/Q125Y/R42H/S133A/S149N/S66Y/V209L/W38E); conditions: purified HLA-DR molecule; high affinity binding = IC50 <1,000 nM
Description: as §1, §2

[5] = molecular target: HLA-DR DRB1*04:05 (Homo sapiens, UniProt P01903+P01911, A100R/A169T/D86S/F76Y/I96L/K127E/L162R/M171V/N62H/P40V/Q125Y/R42H/S133A/S149N/S66Y/V115G/V209L/W38E); conditions: purified HLA-DR molecule; high affinity binding = IC50 <1,000 nM
Description: as §1, §2

[6] = molecular target: HLA-DR DRB1*07:01 (Homo sapiens, UniProt P01903+P01911, A100R/A102G/A103Q/D57E/D86V/E43K/F76Y/K127E/L162R/M171V/P40G/Q125H/Q99D/R33Q/R42Y/R54Q/S133A/S66F/T210M/V115G/Y107V/Y59L/Y89S); conditions: purified HLA-DR molecule; high affinity binding = IC50 <1,000 nM
Description: as §1, §2

[7] = molecular target: HLA-DR DRB1*08:02 (Homo sapiens, UniProt P01903+P01911, A100R/A103L/A169T/F76Y/H45Y/I96F/K41T/L162R/M171V/P40S/Q125H/Q178H/Q39Y/Q99D/R218S/R42G/S66Y/V115G/W38E); conditions: purified HLA-DR molecule; high affinity binding = IC50 <1,000 nM
Description: as §1, §2

[8] = molecular target: HLA-DR DRB1*10:01 (Homo sapiens, UniProt P01903+P01911, A100R/A169T/D57E/F55L/F60V/F69Y/F76Y/I96L/L162R/M171V/P40V/Q260P/Q39E/Q99R/R195Q/R42F/S149N/S66Y/T210M/V115G/V67A/W38E/Y59R/Y61H); conditions: purified HLA-DR molecule; high affinity binding = IC50 <1,000 nM
Description: as §1, §2

[9] = molecular target: HLA-DR DRB1*11:01 (Homo sapiens, UniProt P01903+P01911, A100R/A169T/A87E/I96F/K41T/L162R/M171V/P40S/Q125H/Q178H/Q39Y/Q99D/R42S/S66Y/T262R/V115G/W38E); conditions: purified HLA-DR molecule; high affinity binding = IC50 <1,000 nM
Sequence of HLA-DR DRB1*11:01 (P01903 26-254 limits assumed, other chains not shown): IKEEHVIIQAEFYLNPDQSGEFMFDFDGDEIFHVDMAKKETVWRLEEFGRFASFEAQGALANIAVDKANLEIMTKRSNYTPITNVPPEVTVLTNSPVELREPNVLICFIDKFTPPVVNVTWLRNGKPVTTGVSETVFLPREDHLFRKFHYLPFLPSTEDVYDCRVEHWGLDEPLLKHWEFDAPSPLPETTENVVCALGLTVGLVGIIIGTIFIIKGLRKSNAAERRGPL
Description: as §1, §2

[10] = molecular target: HLA-DR DRB1*13:01 (Homo sapiens, UniProt P01903+P01911, A100E/A169T/K41T/L162R/M171V/P40S/Q125H/Q178H/Q39Y/Q99D/R42S/S66N/T262R/W38E/Y61H); conditions: purified HLA-DR molecule; high affinity binding = IC50 <1,000 nM
Description: as §1, §2

[11] = molecular target: HLA-DR DRB1*15:01 (Homo sapiens, UniProt P01903+P01911); conditions: purified HLA-DR molecule; high affinity binding = IC50 <1,000 nM
Description: as §1, §2

[12] = molecular target: HLA-DR DRB4*01:01 (Homo sapiens, UniProt P01903+P13762, G164S); conditions: purified HLA-DR molecule; high affinity binding = IC50 <1,000 nM
Description: as §1, §2

[13] = molecular target: HLA-DR DRB5*01:01 (Homo sapiens, UniProt P01903+Q30154); conditions: purified HLA-DR molecule; high affinity binding = IC50 <1,000 nM
Description: as §1, §2

[14] = molecular target: HLA-DR DRB1*03:01 (Homo sapiens, UniProt P01903+P01911, A100K/A102G/A103R/A169T/F55Y/I96L/K41T/L162R/M171V/P40S/Q125H/Q178H/Q39Y/R42S/S66N/T106N/T262R/W38E/Y61H); conditions: purified HLA-DR molecule; high affinity binding = IC50 <1,000 nM
Sequence of HLA-DR DRB1*03:01 (P01903 26-254, other chains not shown): as the sequence (P01903 26-254 limits assumed, other chains not shown) above
Description: as §1, §2

[15] = molecular target: HLA-DR DRB3*01:01 (Homo sapiens, UniProt P01903+P79483); conditions: purified HLA-DR molecule; high affinity binding = IC50 <1,000 nM
Description: as §1, §2

[16] = molecular target: HLA-DR DRB1*13:02 (Homo sapiens, UniProt P01903+P01911, A100E/A169T/K41T/L162R/M171V/P40S/Q125H/Q178H/Q39Y/Q99D/R42S/S66N/T262R/V115G/W38E/Y61H); conditions: purified HLA-DR molecule; high affinity binding = IC50 <1,000 nM
Sequence of HLA-DR DRB1*13:02 (P01903 26-254 limits assumed, other chains not shown): as above
Description: as §1, §2

[17] = molecular target: HLA-DR DRB3*02:02 (Homo sapiens, UniProt P01903+P79483, A212P/D57E/F66Y/L67A/R103Q/R218S/R40L/S89Y/T80R/V86D/Y55F/Y59H); conditions: purified HLA-DR molecule; high affinity binding = IC50 <1,000 nM
Sequence of HLA-DR DRB3*02:02 (P01903 26-254 limits assumed): as the sequence (P01903 26-254 limits assumed, other chains not shown) above
Sequence of HLA-DR DRB3*02:02 (P79483 30-266 R40L/Y55F/D57E/Y59H/F66Y/L67A/T80R/V86D/S89Y/R103Q/A212P/R218S limits assumed): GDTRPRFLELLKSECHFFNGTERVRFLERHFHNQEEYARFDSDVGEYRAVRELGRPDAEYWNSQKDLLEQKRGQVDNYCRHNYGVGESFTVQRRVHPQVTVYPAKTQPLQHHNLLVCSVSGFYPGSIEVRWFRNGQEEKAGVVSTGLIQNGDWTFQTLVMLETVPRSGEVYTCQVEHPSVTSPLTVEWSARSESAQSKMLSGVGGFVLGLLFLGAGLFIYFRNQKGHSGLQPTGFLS
Description: as §1, §2

Molecule | IC50 [1] | IC50 [2] | IC50 [3] | IC50 [4] | IC50 [5] | IC50 [6] | IC50 [7] | IC50 [8] | IC50 [9] | IC50 [10] | IC50 [11] | IC50 [12] | IC50 [13] | IC50 [14] | IC50 [15] | IC50 [16] | IC50 [17]
CC[C@H](C)[C@H](NC(=O)[C@@H](NC(=O)[C@H](Cc1ccccc1)NC(=O)[C@H](Cc1ccccc1)NC(=O)[C@H](CC(C)C)NC(=O)[C@H](C)NC(=O)[C@H](CC(C)C)NC(=O)[C@H](Cc1ccccc1)NC(=O)[C@H](Cc1ccccc1)NC(=O)[C@@H](NC(=O)[C@H](CO)NC(=O)[C@H](CC(C)C)NC(=O)[C@@H](NC(=O)[C@H](CCCCN)NC(=O)[C@@H](N)CCSC)[C@@H](C)CC)C(C)C)[C@@H](C)CC)C(=O)O [EXP1-P01] | 3.59 µM | 21.4 µM | 5.05 µM | 9.13 µM | 3.52 µM | 9.19 µM | 5.45 µM | 4.94 µM | 39.6 µM | 3.12 µM | 3.36 µM | 25.2 µM | 10.9 µM | – | – | – | –
CC(C)C[C@H](NC(=O)CNC(=O)[C@@H](NC(=O)CNC(=O)CNC(=O)[C@H](CC(C)C)NC(=O)[C@H](CC(C)C)NC(=O)[C@@H](NC(=O)[C@@H](N)[C@@H](C)O)C(C)C)C(C)C)C(=O)N[C@H](C(=O)N[C@@H](CC(C)C)C(=O)N[C@@H](Cc1ccc(O)cc1)C(=O)N[C@@H](CC(N)=O)C(=O)N[C@H](C(=O)N[C@@H](CCC(=O)O)C(=O)O)[C@@H](C)O)C(C)C [EXP1-P19] | 4.45 µM | 0.0086 µM | 2.44 µM | 20.1 µM | 4.95 µM | 3.95 µM | – | 34 µM | – | 7.44 µM | 0.219 µM | 8.28 µM | 1.18 µM | – | – | – | –
EPLIDVHDLISDMIK [EXP1-P10] | – | 6.02 µM | 27.5 µM | 1.11 µM | 31 µM | – | 2.84 µM | – | – | – | 29.2 µM | 0.162 µM | – | 6.77 µM | 7.96 µM | – | –
GSGVSSKKKNKKGSG [EXP1-P07] | – | – | – | – | – | – | – | – | – | 1.98 µM | – | – | 4.56 µM | – | – | – | –
GVGLVLYNTEKGRHP [EXP1-P20] | – | 8.94 µM | 0.026 µM | 0.0091 µM | 2.95 µM | – | 0.0093 µM | 7.97 µM | 0.183 µM | 0.122 µM | 0.024 µM | 0.081 µM | 0.539 µM | 4.49 µM | – | 17.1 µM | 4.99 µM
KEEELVEVNKRKSKY [EXP1-P13] | – | – | – | – | – | – | – | – | 0.142 µM | 1.19 µM | – | 17.9 µM | 1.12 µM | – | – | – | –
KLATSVLAGLLGVVS [EXP1-P16] | 1.36 µM | 0.011 µM | 0.38 µM | 0.454 µM | 0.539 µM | 0.133 µM | 1.15 µM | 0.152 µM | 0.81 µM | 32.4 µM | 2.27 µM | 0.567 µM | 0.244 µM | 10.8 µM | 6.1 µM | – | 0.481 µM
LGVVSTVLLGGVGLV [EXP1-P18] | 0.491 µM | 0.019 µM | 2.05 µM | 0.806 µM | 5.02 µM | 0.433 µM | 1.81 µM | 1.89 µM | 6.63 µM | 8.56 µM | 0.3 µM | 0.194 µM | 2.47 µM | – | 13.5 µM | 3.23 µM | –
NANPDADSESNGEPN [EXP1-P25] | – | 19.6 µM | 16.7 µM | 12.5 µM | 18.2 µM | – | 4.01 µM | 33.6 µM | 23.2 µM | – | 1.1 µM | 12 µM | 31.1 µM | – | – | – | –
RKSKYKLATSVLAGLL [EXP1-P15] | 0.0039 µM | 0.0011 µM | 0.0012 µM | 0.048 µM | 0.0074 µM | 0.0014 µM | 11.9 µM | 0.0018 µM | 0.007 µM | – | 0.195 µM | 0.23 µM | 0.001 µM | 5.82 µM | 0.047 µM | 39 µM | 0.002 µM
SKKKNKKGSGEPLID [EXP1-P08] | – | – | – | – | – | – | 30 µM | – | – | – | – | – | – | – | – | – | –
SVFFLALFFIIFNKE [EXP1-P02] | 0.648 µM | 11.7 µM | 4.2 µM | 2.61 µM | 4.25 µM | 7.99 µM | 2.97 µM | 3.99 µM | – | 6.46 µM | 1.55 µM | 17.4 µM | 6.95 µM | 12.3 µM | 10.6 µM | – | –
VEVNKRKSKYKLATS [EXP1-P14] | 0.077 µM | 2.35 µM | 0.058 µM | – | 0.083 µM | 8.3 µM | – | 0.295 µM | – | 5.74 µM | 6.1 µM | – | 0.089 µM | – | 13.9 µM | – | 5.84 µM
VLAGLLGVVSTVLLGGV [EXP1-P17] | 0.012 µM | 0.023 µM | 1.26 µM | 0.047 µM | 0.824 µM | 0.0046 µM | 0.049 µM | 0.418 µM | 13.7 µM | 14.2 µM | 0.005 µM | 2.39 µM | 0.238 µM | – | 28.5 µM | 33.4 µM | 14.9 µM
